BigSolDB 2.1

COc1cc(/C=C/C(=O)O)cc(OC)c1O
solubility (mole fraction)
Settings	in DMSO	in ethanol	in ethyl acetate	in ethylene glycol	in isopropanol	in n-butanol	in propylene glycol	in sec-butanol	in transcutol	in water
298.15 K	0.148	0.012	0.00532	0.0059	0.00213	0.00355	0.00452	0.00409	0.0298	6.22e-05
303.15 K	0.15	0.013	0.00627	0.00663	0.00222	0.00429	0.0053	0.00486	0.0324	8.11e-05
308.15 K	0.153	0.0141	0.00764	0.00748	0.00234	0.00529	0.00607	0.00559	0.0353	0.000113
313.15 K	0.156	0.0152	0.00935	0.00843	0.00245	0.00631	0.00708	0.00663	0.0383	0.000146
318.15 K	0.159	0.0164	0.0109	0.00934	0.00257	0.00729	0.00811	0.00761	0.0412	0.000188

Settings	solubility (mole fraction)
in PEG-400, 298.15 K	0.0558
in PEG-400, 303.15 K	0.0616
in PEG-400, 308.15 K	0.0681
in PEG-400, 313.15 K	0.0748
in PEG-400, 318.15 K	0.0834
